According to patent US20240368145A1, “METHODS FOR TREATING CANCER” (IMMUNIC AG, priority 2021, published 2024):

What was measured:
Assay type in all cases: cell-based
NKX3.1 mRNA = assay: Expression of AR target genes (qRT-PCR) in 22Rv1: NKX3.1; settings: Homo sapiens; 22Rv1, 1 μM, 48h; relative to vehicle control (DMSO)
Protocol: (§1) The prostate cancer cell line 22Rv1 was treated for 48h with 1 μM Example compound 1, 1/1, 2/1, 2/2, 2/3, 2/4, 2/5, 2/6, 2/7, 2/8, 2/9 and 2/10 and reference compounds SR2211 and XY018. RNA was extracted using the RNA isolation kit XS (Macherey-Nagel) and following the manufacture's manual. RNA quantity was measured with the Nanodrop before reverse transcription using Superscript II (Invitrogen #100004925). For the quantitative real-time PCR with SYBR-Green (Qiagen #204074), the following primers were used:
(§2) qRT-PCR was performed using SYBR-Green (Qiagen #204074) reagents in a PCR cycler (Gorbett Research) Rotor Gene RG3000 with the following program: denaturation for 5′ at 95° C.; 40 cycles of 20″ at 95° C. and 15″ at 60° C.″ and at the end of the last cycle, the melting temperature of the products was determined by gradually increasing from 60° C. to 99° C. CT values from all samples were normalized to reference (housekeeping) genes using the mean CT value of the GAPDH and YWHAZ (reference genes). Next the values are put relative to the untreated control (vehicle/DMSO).

KLK3 mRNA = assay: Expression of AR target genes (qRT-PCR) in 22Rv1: KLK3; settings: 22Rv1, 1 μM, 48h; relative to vehicle control (DMSO)
Protocol: as §1, §2

FKBP5 mRNA = assay: Expression of AR target genes (qRT-PCR) in 22Rv1: FKBP5; settings: Homo sapiens; 22Rv1, 1 μM, 48h; relative to vehicle control (DMSO)
Protocol: as §1, §2

CCRFCEM (ALL) = assay: Oncotest inhibition of viability, CCRFCEM; settings: Homo sapiens, CCRF-CEM; ALL cell line CCRFCEM; read-out: IC50 range
CCRFCEM/VCR (ALL) = assay: Oncotest inhibition of viability, CCRFCEM/VCR; settings: Homo sapiens, CCRF-CEM; ALL cell line CCRFCEM/VCR; read-out: IC50 range
JURLMK1 (CML) = assay: Oncotest inhibition of viability, JURLMK1; settings: CML cell line JURLMK1; read-out: IC50 range
MEG01 (CML) = assay: Oncotest inhibition of viability, MEG01; settings: Homo sapiens, MEG-01; CML cell line MEG01; read-out: IC50 range
RPMI8226 (MM) = assay: Oncotest inhibition of viability, RPMI8226; settings: Homo sapiens, RPMI-8226; MM cell line RPMI8226; read-out: IC50 range
PL21 (AML) = assay: Oncotest inhibition of viability, PL21; settings: PL-21; AML cell line PL21; read-out: IC50 range
KCL22 (CML) = assay: Oncotest inhibition of viability, KCL22; settings: Homo sapiens, KCL-22; CML cell line KCL22; read-out: IC50 range
OCIAML2 (AML) = assay: Oncotest inhibition of viability, OCIAML2; settings: Homo sapiens, OCI-AML2; AML cell line OCIAML2; read-out: IC50 range
KG1 (AML) = assay: Oncotest inhibition of viability, KG1; settings: AML cell line KG1; read-out: IC50 range
MOLT4 (ALL) = assay: Oncotest inhibition of viability, MOLT4; settings: Homo sapiens, MOLT-4; ALL cell line MOLT4; read-out: IC50 range
U937 (NHL) = assay: Oncotest inhibition of viability, U937; settings: Homo sapiens, U-937; NHL cell line U937; read-out: IC50 range
MV411 (AML) = assay: Oncotest inhibition of viability, MV411; settings: Homo sapiens, MV4-11; AML cell line MV411; read-out: IC50 range
MYLA (NHL) = assay: Oncotest inhibition of viability, MYLA; settings: NHL cell line MYLA; read-out: IC50 range
HUT78 (NHL) = assay: Oncotest inhibition of viability, HUT78; settings: Homo sapiens; NHL cell line HUT78; read-out: IC50 range
HL60 (AML) = assay: Oncotest inhibition of viability, HL60; settings: Homo sapiens, HL-60; AML cell line HL60; read-out: IC50 range
JURKAT (ALL) = assay: Oncotest inhibition of viability, JURKAT; settings: Homo sapiens; ALL cell line JURKAT; read-out: IC50 range
NCIH929 (MM) = assay: Oncotest inhibition of viability, NCIH929; settings: Homo sapiens, NCI-H929; MM cell line NCIH929; read-out: IC50 range
NOMO1 (AML) = assay: Oncotest inhibition of viability, NOMO1; settings: Homo sapiens, NOMO-1; AML cell line NOMO1; read-out: IC50 range
LP1 (MM) = assay: Oncotest inhibition of viability, LP1; settings: MM cell line LP1; read-out: IC50 range
[1] = system: 24 different hematological cell lines; assay: Inhibition of viability in 24 different hematological cell lines (mean); settings: mean over 24 different hematological cell lines; read-out: geometrical mean IC50, inhibition of viability
RAJI (NHL) = assay: Oncotest inhibition of viability, RAJI; settings: Homo sapiens; NHL cell line RAJI; read-out: IC50 range
L363 (MM) = assay: Oncotest inhibition of viability, L363; settings: Homo sapiens, L-363; MM cell line L363; read-out: IC50 range
K562 (CML) = assay: Oncotest inhibition of viability, K562; settings: Homo sapiens; CML cell line K562; read-out: IC50 range
EM2 (CML) = assay: Oncotest inhibition of viability, EM2; settings: CML cell line EM2; read-out: IC50 range

`CC(C)(O)CCn1ncc(-c2onc(-c3c(F)cccc3Cl)c2-c2ncccn2)c1C(F)(F)F` [2/8] was tested, and the mrna remaining at 1 µM (NKX3.1 mRNA) was 29.3%, the “KLK3 mRNA expression” value (KLK3 mRNA) was 1.152 and the mrna remaining at 1 µM (FKBP5 mRNA) was 38.1%.

For `COC(=O)c1c(-c2c(F)cccc2Cl)noc1-c1cnn(-c2cccc(Cl)c2)c1C(F)(F)F` [Example 1, Methyl 3-(2-chloro-6-fluorophenyl)-5-(1-(3-chlorophenyl)-5-(trifluoromethyl)-1H-pyrazol-4-yl)isoxazole-4-carboxylate], the IC50 (CCRFCEM (ALL)) was 10 to 100 nM, the IC50 (CCRFCEM/VCR (ALL)) was 10 to 100 nM and the IC50 (JURLMK1 (CML)) was under 10 nM. It also gave an IC50 (MEG01 (CML)) of at least 1000 nM, an IC50 (RPMI8226 (MM)) of under 10 nM and an IC50 (PL21 (AML)) of 100 to 1000 nM. For the same compound, the IC50 (KCL22 (CML)) was 10 to 100 nM, the IC50 (OCIAML2 (AML)) was 10 to 100 nM and the IC50 (KG1 (AML)) was under 10 nM. For the same compound, the IC50 (MOLT4 (ALL)) was under 10 nM, the IC50 (U937 (NHL)) was 10 to 100 nM and the IC50 (MV411 (AML)) was under 10 nM. The IC50 (MYLA (NHL)) was 100 to 1000 nM, the IC50 (HUT78 (NHL)) was under 10 nM and the IC50 (HL60 (AML)) was under 10 nM. It also gave an IC50 (JURKAT (ALL)) of under 10 nM, an IC50 (NCIH929 (MM)) of under 10 nM and an IC50 (NOMO1 (AML)) of 100 to 1000 nM. For the same compound, the IC50 (LP1 (MM)) was 10 to 100 nM, the IC50 [1] was under 25 nM and the IC50 (RAJI (NHL)) was under 10 nM. The IC50 (L363 (MM)) was under 10 nM, the IC50 (K562 (CML)) was at least 1000 nM and the IC50 (EM2 (CML)) was 10 to 100 nM.
